In ChEMBL document CHEMBL1201862, “PubChem BioAssay data set” (2004):
Calls of active or inactive are those of the source.

What was measured:
[1] = molecular target: T1, Tyrosine-protein phosphatase non-receptor type 11 (Homo sapiens, UniProt Q06124); experiment: SHP2 phosphatase inhibition, dose response, selectivity assay for STEP inhibitor project, biochemical (AID 602367); assay type: functional; settings: read-out: IC50_Mean
T1 sequence (Q06124 whole entry): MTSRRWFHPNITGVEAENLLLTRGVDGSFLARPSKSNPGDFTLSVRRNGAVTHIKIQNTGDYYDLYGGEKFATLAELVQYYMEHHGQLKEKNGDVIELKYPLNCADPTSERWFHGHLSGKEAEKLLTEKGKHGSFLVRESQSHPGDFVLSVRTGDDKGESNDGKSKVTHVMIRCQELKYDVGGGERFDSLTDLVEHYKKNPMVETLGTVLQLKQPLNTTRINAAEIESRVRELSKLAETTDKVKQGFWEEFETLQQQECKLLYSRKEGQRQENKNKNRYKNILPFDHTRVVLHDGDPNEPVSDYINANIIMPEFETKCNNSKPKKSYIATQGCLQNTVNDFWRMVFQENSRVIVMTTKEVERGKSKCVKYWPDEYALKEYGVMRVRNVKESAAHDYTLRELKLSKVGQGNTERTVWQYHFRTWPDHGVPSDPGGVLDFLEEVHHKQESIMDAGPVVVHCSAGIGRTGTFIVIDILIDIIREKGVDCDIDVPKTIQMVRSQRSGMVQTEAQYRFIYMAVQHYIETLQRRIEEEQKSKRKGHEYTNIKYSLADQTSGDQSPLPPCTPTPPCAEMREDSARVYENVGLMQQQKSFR

[2] = molecular target: T2, Tyrosine-protein phosphatase non-receptor type 5 (Homo sapiens, UniProt P54829); experiment: STEP phosphatase inhibitors, confirmation, biochemical, fluorescence intensity, uHTS hits (AID 602372); assay type: functional; settings: read-out: IC50_Mean
T2 sequence (P54829 whole entry): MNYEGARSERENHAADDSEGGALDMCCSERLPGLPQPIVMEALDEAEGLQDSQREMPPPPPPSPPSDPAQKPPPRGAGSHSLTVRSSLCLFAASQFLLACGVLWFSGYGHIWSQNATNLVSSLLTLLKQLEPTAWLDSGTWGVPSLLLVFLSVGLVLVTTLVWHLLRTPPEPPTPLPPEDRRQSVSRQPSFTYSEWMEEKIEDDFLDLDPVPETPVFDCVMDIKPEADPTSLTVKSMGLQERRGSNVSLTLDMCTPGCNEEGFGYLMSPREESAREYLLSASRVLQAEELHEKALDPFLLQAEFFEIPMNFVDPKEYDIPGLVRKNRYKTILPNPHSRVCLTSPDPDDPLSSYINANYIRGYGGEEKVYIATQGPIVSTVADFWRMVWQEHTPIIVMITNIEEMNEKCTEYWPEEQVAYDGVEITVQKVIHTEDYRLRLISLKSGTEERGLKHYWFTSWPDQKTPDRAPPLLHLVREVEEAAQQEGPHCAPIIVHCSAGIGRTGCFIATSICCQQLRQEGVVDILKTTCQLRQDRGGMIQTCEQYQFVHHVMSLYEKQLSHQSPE

[3] = molecular target: Dual specificity protein phosphatase 3 (Homo sapiens, UniProt P51452); experiment: VHR phosphatase inhibition, dose response, selectivity assay for STEP inhibitor project, biochemical (AID 602374); assay type: functional; settings: read-out: IC50_Mean
[4] = molecular target: T3, Histone-lysine N-methyltransferase NSD2 (Homo sapiens, UniProt O96028); assay type: biochemical
T3 sequence (O96028 whole entry): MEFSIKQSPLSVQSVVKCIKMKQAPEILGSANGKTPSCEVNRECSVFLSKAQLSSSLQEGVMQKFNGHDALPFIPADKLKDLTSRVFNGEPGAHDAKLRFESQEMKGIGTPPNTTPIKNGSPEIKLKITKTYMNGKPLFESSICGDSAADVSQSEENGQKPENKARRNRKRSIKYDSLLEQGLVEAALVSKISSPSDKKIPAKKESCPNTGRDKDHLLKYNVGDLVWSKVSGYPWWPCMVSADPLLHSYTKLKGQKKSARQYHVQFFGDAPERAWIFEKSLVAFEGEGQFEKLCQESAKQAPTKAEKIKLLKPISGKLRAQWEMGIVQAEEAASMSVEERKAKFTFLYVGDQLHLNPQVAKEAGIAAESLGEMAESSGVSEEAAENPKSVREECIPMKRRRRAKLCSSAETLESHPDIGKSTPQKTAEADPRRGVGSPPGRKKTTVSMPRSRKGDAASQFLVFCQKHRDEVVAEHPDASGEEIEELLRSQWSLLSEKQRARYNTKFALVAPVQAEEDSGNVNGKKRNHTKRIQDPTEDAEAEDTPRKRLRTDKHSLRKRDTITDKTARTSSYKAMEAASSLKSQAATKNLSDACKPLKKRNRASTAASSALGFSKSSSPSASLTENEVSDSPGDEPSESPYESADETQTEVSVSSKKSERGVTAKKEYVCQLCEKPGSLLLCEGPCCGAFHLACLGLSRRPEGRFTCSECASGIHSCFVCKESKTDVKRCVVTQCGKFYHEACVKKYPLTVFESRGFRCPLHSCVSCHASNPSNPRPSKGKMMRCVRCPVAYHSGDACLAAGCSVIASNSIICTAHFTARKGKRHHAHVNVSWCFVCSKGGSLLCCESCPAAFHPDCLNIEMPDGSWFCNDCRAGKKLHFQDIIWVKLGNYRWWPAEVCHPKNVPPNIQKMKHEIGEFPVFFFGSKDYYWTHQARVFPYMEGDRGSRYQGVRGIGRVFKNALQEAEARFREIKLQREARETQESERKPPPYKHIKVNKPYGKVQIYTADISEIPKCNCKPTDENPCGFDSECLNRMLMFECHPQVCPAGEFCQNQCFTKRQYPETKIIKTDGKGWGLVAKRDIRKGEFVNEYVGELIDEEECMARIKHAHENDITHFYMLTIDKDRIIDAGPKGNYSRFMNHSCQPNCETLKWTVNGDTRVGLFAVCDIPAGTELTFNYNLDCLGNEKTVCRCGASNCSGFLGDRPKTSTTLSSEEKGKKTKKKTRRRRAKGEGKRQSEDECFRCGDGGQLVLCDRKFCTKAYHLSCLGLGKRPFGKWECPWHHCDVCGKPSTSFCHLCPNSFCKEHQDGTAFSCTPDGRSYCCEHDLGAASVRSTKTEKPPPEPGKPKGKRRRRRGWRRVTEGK

Paired box protein Pax-8 = Paired box protein Pax-8 (Homo sapiens, UniProt Q06710); experiment: inhibitors of PAX8-driven TPO luciferase reporter, dose response, RMG-I cells, cherry-pick (AID 687027); assay type: functional, cell-based;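 further: luciferase reporter driven by Pax8 target thyroperoxidase promoter measured by SteadyGlo luminescence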
[5] = NIH:OVCAR-3 ovarian cancer cell cytotoxicity, dose response, PAX8 inhibitor project, plate reader, dry powder samples (AID 743044); assay type: functional, cell-based
[6] = cytotoxicity in OVCAR8 ovarian cancer cells, dose response, PAX8 project, cell-based, plate reader, dry powder samples (AID 743197); assay type: functional; settings: OVCAR-8
[7] = P. falciparum 3D7-ScDHODH growth inhibitors, dose response, SYBR Green, dry powder samples (AID 1159570); assay type: functional, cell-based;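 further: parasite growth measured after 72 hours of compound exposure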
[8] = P. falciparum Dd2 growth inhibitors, dose response, SYBR Green, cherry-picked samples (AID 1159567); assay type: functional, cell-based
[9] = P. falciparum Dd2 growth inhibitors, dose response, SYBR Green, dry powder samples (AID 1159566); assay type: functional, cell-based;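 further: potency for growth inhibition with lower SYBR green DNA signal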
[10] = P. falciparum ATP4 D1247Y mutant growth inhibitors, dose response, NITD609-resistant line, SYBR Green, dry powder (AID 1159571); assay type: functional, cell-based;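 further: parasites synchronized at ring stage by sorbitol before testing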

Paired box protein Pax-8, sequence (Q06710 whole entry): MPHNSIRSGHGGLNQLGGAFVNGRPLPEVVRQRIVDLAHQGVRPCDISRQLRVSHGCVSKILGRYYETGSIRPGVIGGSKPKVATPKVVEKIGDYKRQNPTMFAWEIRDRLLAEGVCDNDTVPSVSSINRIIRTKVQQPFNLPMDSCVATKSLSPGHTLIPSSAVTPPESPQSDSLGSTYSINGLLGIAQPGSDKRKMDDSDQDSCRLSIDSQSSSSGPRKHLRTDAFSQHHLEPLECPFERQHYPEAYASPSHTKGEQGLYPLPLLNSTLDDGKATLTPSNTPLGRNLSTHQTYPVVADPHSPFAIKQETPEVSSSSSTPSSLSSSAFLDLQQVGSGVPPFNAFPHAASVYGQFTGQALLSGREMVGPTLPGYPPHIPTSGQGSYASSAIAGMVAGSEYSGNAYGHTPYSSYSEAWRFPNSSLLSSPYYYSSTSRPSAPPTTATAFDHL
Dual specificity protein phosphatase 3, sequence (P51452 whole entry): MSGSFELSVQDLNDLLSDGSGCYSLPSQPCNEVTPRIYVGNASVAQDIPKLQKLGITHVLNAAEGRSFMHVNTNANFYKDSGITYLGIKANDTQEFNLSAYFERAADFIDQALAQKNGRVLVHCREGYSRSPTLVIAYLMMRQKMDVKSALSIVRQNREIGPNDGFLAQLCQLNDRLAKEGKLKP

Row | Compound | AC50 (Paired box protein Pax-8) | AC50 [5] | AC50 [6] | AC50 [7] | AC50 [8] | AC50 [9] | AC50 [10] | further results
1 | O=C1NN(c2cccc(Br)c2)C(=O)/C1=C\c1ccc(N2CCOCC2)cc1 |  |  |  |  |  |  |  | IC50 [1]: 4.48 µM (active); IC50 [2]: 21.3 µM (inactive); IC50 [3]: 2.55 µM (active)
2 | CCN(CC)CCCNc1ncnc2scc(-c3ccc(F)cc3)c12 |  |  |  |  |  |  |  | AC50 [4]: > 20 µM (inactive)
3 | Cc1ccc(S(=O)(=O)N(C)C[C@H]2Oc3cc(C#Cc4ccncc4)ccc3S(=O)(=O)N([C@@H](C)CO)C[C@@H]2C)cc1 | 2.52 µM (active) | 49.1 µM (active) | > 70 µM (inactive) | 1.37 µM (active) | 1.68 µM (active) | 1.41 µM (active) | 1.64 µM (active) | 
4 | Cc1noc(C)c1S(=O)(=O)Nc1ccc2c(c1)C(=O)N([C@@H](C)CO)C[C@H](C)[C@@H](CN(C)C(=O)Nc1ccc(C(F)(F)F)cc1)OCCCC[C@H](C)O2 | 4.92 µM (active) | 30.9 µM (active) | > 70 µM (inactive) |  |  |  |  | 
5 | COc1ccc(NC(=O)N2CCCCN3[C@@H](CO)[C@H](c4ccc(C#Cc5ccccn5)cc4)[C@@H]3C2)cc1 |  |  |  | 0.116 µM (active) | < 0.3 µM (active) | 0.155 µM (active) | 0.132 µM (active) | 
